pIC50: −log10 of the molar value.
Assays:
[1] = Pharmacokinetic analysis of crizotinib glucosides after oral gavage, plasma LC/MS/MS; format: in vivo, male C57 mice
HEK-293T cells = assay: Cell viability assay (CCK-8, 72 h); conditions: Homo sapiens, read-out: HEK-293T IC50 (growth inhibition)
SNU-5 cells = assay: Cell viability assay (CCK-8, 72 h); conditions: Homo sapiens, SNU-5, 72 h, read-out: SNU-5 IC50 (growth inhibition)
SK-MEL-28 cells = assay: Cell viability assay (CCK-8, 72 h); conditions: Homo sapiens, SK-MEL-28, 72 h, read-out: SK-MEL-28 IC50 (growth inhibition)
[2] = target: ALK (kinase domain, 1068–1410) (Homo sapiens, UniProt Q9UM73); assay: Enzymatic inhibition assay, ATP hydrolysis (Kinase-Glo luminescent kit)
Sequence of ALK (kinase domain, 1068–1410) (Q9UM73 1068-1410): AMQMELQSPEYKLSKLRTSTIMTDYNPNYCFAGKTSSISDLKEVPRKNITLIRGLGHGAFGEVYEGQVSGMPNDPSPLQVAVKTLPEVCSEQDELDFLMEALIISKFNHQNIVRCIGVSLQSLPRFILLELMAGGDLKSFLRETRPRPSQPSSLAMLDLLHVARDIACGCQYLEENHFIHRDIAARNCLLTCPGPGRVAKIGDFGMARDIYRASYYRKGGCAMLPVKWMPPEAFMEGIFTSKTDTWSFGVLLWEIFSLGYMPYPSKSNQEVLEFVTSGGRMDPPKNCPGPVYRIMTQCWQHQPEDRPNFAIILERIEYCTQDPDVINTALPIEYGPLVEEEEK

cancer cells = tested on: cancer cells; parameters: method as in PMID 25184545; conditions: compared with deglycoBLM (6); cited from earlier work
[3] = mouse, plasma, oral GA95 91.6 mg/kg, male C57 mice, analyte Glycolcrizotinib

half-life ([1]; mouse, plasma, oral GA95 91.6 mg/kg, male C57 mice, analyte GA95)	AUC(0-inf) [1, 3]	AUC(0-t) [1, 3]	Cmax [1, 3]	MRT [1, 3]	Tmax [1, 3]	pIC50 (SNU-5 cells)	pIC50 (SK-MEL-28 cells)	pIC50 [2]	Compound	plasma concentration of crizotinib after oral application of the glucoside ([1]; oral GA95, male C57 mice, compared with the crizotinib group)	pIC50 (HEK-293T cells)	cytotoxic activity (cancer cells)
43.6 min	42.6 ng·h/mL	37.6 ng·h/mL	33.6 ng/mL	64.8 min	15 min	7.66	4.60	6.52	C[C@@H](Oc1cc(-c2cnn(C3CCN(C(=O)O[C@@H]4O[C@H](CO)[C@@H](O)[C@H](O)[C@H]4O)CC3)c2)cnc1N)c1c(Cl)ccc(F)c1Cl [GA95]	quickly increased to the similar level as the crizotinib group	4.60	–
–	–	–	–	–	–	–	–	–	Cc1c(N)nc([C@H](CC(N)=O)NC[C@H](N)C(N)=O)nc1C(=O)N[C@H](C(=O)N[C@H](C)[C@@H](O)[C@H](C)C(=O)N[C@H](C(=O)NCCc1nc(-c2nc(C(=O)NCCCNCCCCNC(=O)OC3O[C@@H](CO)[C@@H](O)[C@H](O)[C@@H]3O[C@H]3O[C@H](CO)[C@@H](O)[C@H](OC(N)=O)[C@@H]3O)cs2)cs1)[C@@H](C)O)[C@@H](O)c1c[nH]cn1 (stereo partly shown) [compound 5]	–	–	significantly more potent cytotoxic activity than deglycoBLM (6)
–	–	–	–	–	–	7.82	5.22	–	C[C@@H](Oc1cc(-c2cnn(C3CCNCC3)c2)cnc1N)c1c(Cl)ccc(F)c1Cl [Crizotinib, reference compound]	–	5.22	–
–	–	–	–	–	–	7.35	5.30	5.96	CC(=O)OC[C@H]1O[C@@H](OC(=O)N2CCC(n3cc(-c4cnc(N)c(O[C@H](C)c5c(Cl)ccc(F)c5Cl)c4)cn3)CC2)[C@H](OC(C)=O)[C@@H](OC(C)=O)[C@@H]1OC(C)=O [GA89]	–	5.30	–
